In PMC7383607, “Kinetic and structural studies of Trypanosoma and Leishmania phosphofructokinases show evolutionary divergence and identify AMP as a switch regulating glycolysis versus gluconeogenesis” (The Febs Journal, 2020):

T1: LiPFK (Leishmania infantum phosphofructokinase) (Leishmania infantum, UniProt A4I4W5)
T1 construct: gene pfk; recombinant, E. coli, purified; N-terminal His6 tag (given for SPR); glycosomal homotetramer
T1 sequence (A4I4W5 1-486): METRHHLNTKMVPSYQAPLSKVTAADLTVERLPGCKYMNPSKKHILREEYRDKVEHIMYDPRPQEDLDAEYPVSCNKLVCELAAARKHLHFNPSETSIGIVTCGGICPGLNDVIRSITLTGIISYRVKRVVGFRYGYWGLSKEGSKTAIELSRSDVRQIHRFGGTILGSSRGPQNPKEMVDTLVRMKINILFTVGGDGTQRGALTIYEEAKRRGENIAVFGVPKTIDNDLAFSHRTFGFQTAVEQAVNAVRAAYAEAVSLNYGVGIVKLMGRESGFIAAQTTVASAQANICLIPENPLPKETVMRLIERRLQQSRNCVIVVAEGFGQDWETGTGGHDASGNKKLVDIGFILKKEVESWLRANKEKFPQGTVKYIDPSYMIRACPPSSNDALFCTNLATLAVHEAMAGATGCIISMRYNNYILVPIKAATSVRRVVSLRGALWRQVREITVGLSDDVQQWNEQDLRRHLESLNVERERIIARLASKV

T2: TcPFK (Trypanosoma cruzi phosphofructokinase) (Trypanosoma cruzi, UniProt Q4E657)
T2 construct: gene pfk; recombinant, E. coli, purified; N-terminal His6 tag (given for SPR); glycosomal homotetramer
T2 sequence (Q4E657 1-485): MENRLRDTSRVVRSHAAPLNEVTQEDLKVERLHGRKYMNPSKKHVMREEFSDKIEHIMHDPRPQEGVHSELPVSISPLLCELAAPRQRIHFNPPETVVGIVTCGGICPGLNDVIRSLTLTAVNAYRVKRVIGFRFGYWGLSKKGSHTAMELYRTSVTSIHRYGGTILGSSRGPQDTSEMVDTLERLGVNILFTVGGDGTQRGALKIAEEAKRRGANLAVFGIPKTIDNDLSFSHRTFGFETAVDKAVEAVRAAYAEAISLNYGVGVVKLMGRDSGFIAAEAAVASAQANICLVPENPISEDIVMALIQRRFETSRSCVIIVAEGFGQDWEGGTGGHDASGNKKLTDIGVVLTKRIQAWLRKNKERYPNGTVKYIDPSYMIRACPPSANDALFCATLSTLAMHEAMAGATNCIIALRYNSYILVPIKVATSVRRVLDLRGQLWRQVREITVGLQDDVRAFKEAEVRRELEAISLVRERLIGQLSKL

T3: TbPFK (Trypanosoma brucei phosphofructokinase) (Trypanosoma brucei, UniProt O15648)
T3 construct: gene pfk; recombinant, E. coli, purified; N-terminal His6 tag (for SPR and reaction order tests); tetramer of 53-kDa subunits
T3 sequence (O15648 1-487): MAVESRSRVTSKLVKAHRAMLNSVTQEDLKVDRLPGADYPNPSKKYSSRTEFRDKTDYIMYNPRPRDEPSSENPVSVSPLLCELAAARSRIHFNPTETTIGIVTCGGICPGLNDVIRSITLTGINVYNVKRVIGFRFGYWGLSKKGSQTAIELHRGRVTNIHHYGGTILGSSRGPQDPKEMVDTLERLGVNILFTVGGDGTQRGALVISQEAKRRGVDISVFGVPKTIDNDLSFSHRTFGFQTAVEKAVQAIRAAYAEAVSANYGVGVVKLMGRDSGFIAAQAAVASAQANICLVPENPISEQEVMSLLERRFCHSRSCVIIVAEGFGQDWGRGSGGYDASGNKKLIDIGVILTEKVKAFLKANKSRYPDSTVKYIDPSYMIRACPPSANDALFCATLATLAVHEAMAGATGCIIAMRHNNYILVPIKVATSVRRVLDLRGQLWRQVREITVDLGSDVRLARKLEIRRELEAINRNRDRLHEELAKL

B1: Trypanosoma brucei phosphofructokinase (enzyme)
chain: T3 sequence (O15648 1-487)
notes: ATP-dependent phosphofructokinase of Trypanosoma brucei; 53-kDa subunit; residues up to 486 are named in the structure; The N-terminal His6 tag is stated for the SPR experiments and 'His-tagged TbPFK' for the kinetics; also called TbPFK; T. brucei PFK
B2: TcPFK (Trypanosoma cruzi phosphofructokinase) (Trypanosoma cruzi strain CL Brener) (protein)
chain: T2 sequence (Q4E657 1-485)
notes: recombinant, E. coli, purified; N-terminal His6 tag (given for SPR); glycosomal homotetramer

What was measured:
[1] = target: T1, LiPFK (Leishmania infantum phosphofructokinase); assay: SPR steady state, His6-PFK captured on Ni-NTA chip; assay type: binding
Excerpt: SPR steady state, His6-PFK captured on Ni-NTA chip on LiPFK (Leishmania infantum phosphofructokinase)

[2] = target: T2, TcPFK (Trypanosoma cruzi phosphofructokinase); assay: SPR steady state, His6-PFK captured on Ni-NTA chip; assay type: binding
Excerpt: SPR steady state, His6-PFK captured on Ni-NTA chip on TcPFK (Trypanosoma cruzi phosphofructokinase)

[3] = target: T3, TbPFK (Trypanosoma brucei phosphofructokinase); assay: SPR steady state, His6-PFK captured on Ni-NTA chip; assay type: binding
Excerpt: SPR steady state, His6-PFK captured on Ni-NTA chip on TbPFK (Trypanosoma brucei phosphofructokinase)

[4] = substrate: Nc1nc2c(ncn2[C@@H]2O[C@H](COP(=O)(O)OP(=O)(O)OP(=O)(O)O)[C@@H](O)[C@H]2O)c(=O)[nH]1; assay: pyruvate kinase-lactate dehydrogenase coupled assay, A340, sigmoidal fit; assay type: biochemical, Trypanosoma brucei; settings: 3 mM F6P, no AMP, 10 mM MgCl2, 100 mM KCl, pH 7.4, 25 °C
Excerpt: pyruvate kinase-lactate dehydrogenase coupled assay, A340, sigmoidal fit on TbPFK (Trypanosoma brucei phosphofructokinase)

[5] = target: the molecule itself; assay: crystal structure; TbPFK at 6 mg/mL in gel filtration buffer with 1 mM F16BP, 1 mM AMP and 500 µM PFK inhibitor, hanging drop, 18 °C, 9.5% PEG 8000, 0.1 M sodium cacodylate pH 7.4; only AMP seen bound; two tetramers in the asymmetric unit
[6] = substrate: Nc1nc2c(ncn2[C@@H]2O[C@H](COP(=O)(O)OP(=O)(O)OP(=O)(O)O)[C@@H](O)[C@H]2O)c(=O)[nH]1; assay: pyruvate kinase-lactate dehydrogenase coupled assay, A340, sigmoidal fit; assay type: biochemical, Trypanosoma cruzi; settings: 3 mM F6P, no AMP, 10 mM MgCl2, 100 mM KCl, pH 7.4, 25 °C
Excerpt: pyruvate kinase-lactate dehydrogenase coupled assay, A340, sigmoidal fit on TcPFK (Trypanosoma cruzi phosphofructokinase)

Molecule	Kd [1]	Kd [2]	Kd [3]	also measured
Nc1ncnc2c1ncn2[C@@H]1O[C@H](COP(=O)(O)OP(=O)(O)O)[C@@H](O)[C@H]1O [ADP]	160 µM	730 µM	560 µM	
Nc1ncnc2c1ncn2[C@@H]1O[C@H](COP(=O)(O)O)[C@@H](O)[C@H]1O [AMP]	2300 µM	1040 µM	470 µM	
Nc1ncnc2c1ncn2[C@@H]1O[C@H](COP(=O)(O)OP(=O)(O)OP(=O)(O)O)[C@@H](O)[C@H]1O [ATP]	16.8 µM	35.4 µM	15.8 µM	
B1				K0.5 [4]: 123 (8) μM; Vmax [4]: 38.3 µmol/min/mg; kcat [4]: 35.6 s⁻¹; stoichiometry N [5]: 4
B2				K0.5 [6]: 195 (14) μM; Vmax [6]: 63 µmol/min/mg; kcat [6]: 58.7 s⁻¹
